Experimental data as given in US5824652A, “Heterocyclic acyldipeptides, processes for the preparation thereof and pharmaceutical compositions containing the same” (Univerza v Ljubljani, Fakulteta za naravoslovje in …, priority 1993, dated 1998).

Columns and labels:
[1] = test system: Candida albicans; test: Immunorestoration test (cyclophosphamide-immunosuppressed mice challenged with Candida albicans); assay type: in vivo; conditions: for Number of survivals: Candida albicans challenge, n = 10
Description: The test substance or a vehicle was administered i.p. to groups of 10 mice on days 1, 3 and 5 of the experiment in four different doses (0.1, 1, 10 and 100 mg/kg). Cyclophosphamide (30 mg/kg) was administered p.o. on days 2, 4, and 6. One day after the last immunosuppressant (cyclophosphamide) dose, the mice were challenged with a suspension of Candida albicans sufficient to result in the mortality of a predominant number of the animals.

[2] = test system: lymphocytes B; test: Determination of haemolytic plaques for the assessment of the maturation of lymphocytes B; assay type: in vivo; conditions: mice immunized with sheep erythrocytes, n = 5
Description: A suspension of sheep erythrocytes (Institute of Microbiology, Faculty of Medicine, Ljubljana, Slovenia) in physiological saline (10^8 /ml) was used for the immunization. […] Romurtide was dissolved in a solution of D-manitol (45 mg/ml; Nopia) and compound 1 was dissolved in physiological saline. The immunization was completed on day 5 after the administration of sheep erythrocytes and the mice were sacrificed. Their spleens were removed and homogenized in Gibco 199 medium. The lymphocytes were separated on the Ficol separating medium (Pharmacia, Uppsala, Sweden). After repeated rinsing with Gibco 199 medium, the cells were resuspended in RPMI 1640 nutrient medium with added 10% of foetal calf serum and streptomycin. To 50 μl of the cell suspension, 450 μl of trypan blue were added and the cells were counted in Neubauer's chamber. The number of lymphocytes per ml of the cell suspension was calculated. To 100 μl of the diluted cell suspension, there were added 200 μl of the RPMI 1640 nutrient medium, 50 μl of a 10% suspension of sheep erythrocytes and 50 μl of guinea pig complement (Institute for Microbiology, Faculty of Medicine, Ljubljana, Slovenia). The reaction mixture (RM) was put into the prepared chambers on the slide, the chambers were sealed with white wax and incubated at 37° C. for 60 minutes. After the completion of the incubation, the plaques were counted under microscope. The number of plaques per 1×10^6 cells was calculated according to the following equations: [formula] In the table, the values are presented as stimulation indexes (number of plaques in the test group/number of plaques in the control group).

[3] = test system: B-16 melanoma; test: Antitumor activity, solid subcutaneous B-16 melanoma; assay type: in vivo, C57B1/6 strain mice; conditions: 10 mg/kg on five consecutive days, started 24 hours after tumor induction; for Animals with complete regression of tumors: still without tumors on day 20
Description: Solid subcutaneous B-16 melanoma were used on C57B1/6 strain mice of 8 to 10 weeks. The tumors were implanted by injection of 3×10^5 live tumor cells into the left lower abdomen of mice. The suspension of tumor cells was prepared in ENAM (Eagle's Minimal Essential Medium, Sigma Chemical Co., St. Louis, Mo., U.S.A.) enriched with 2% foetal calf serum (FCS, Sigma). Tumor cells (B-16 melanoma tumor cells, clone F1, ATCC, Rockville, Md.) for implantation into test animals were grown in vitro in a cell culture. The application of the test substances was started 24 hours after the tumor induction. The test substance was injected five times on five consecutive days in a dose of 10 mg/kg, the dose of Nopia was 1 mg/kg of test animals daily (a fivefold human dose). The antitumor activity of the active compounds was monitored by recording the tumor emergence, daily measuring the tumor diameters and calculating the tumour volumes.

[4] = Toxicity, average lethal dose (LD50); assay type: in vivo; conditions: male mice, intravenous application
[5] = Pyrogenous activity according to the method of USPXXII; assay type: in vivo
Description: The pyrogenous activity was determined according to the method of USPXXII.

[6] = 0.1 mg/kg × 3 i.p. + cyclophosphamide 30 mg/kg p.o.
[7] = 1 mg/kg × 3 i.p. + cyclophosphamide 30 mg/kg p.o.
[8] = 10 mg/kg × 3 i.p. + cyclophosphamide 30 mg/kg p.o.
[9] = 100 mg/kg × 3 i.p. + cyclophosphamide 30 mg/kg p.o.

CCCCCCCCCCCCCCCCCC(=O)NCCCC[C@H](NC(=O)CC[C@@H](NC(=O)[C@H](C)NC(=O)[C@@H](C)O[C@H]1[C@H](O)[C@@H](CO)OC(O)[C@@H]1NC(C)=O)C(N)=O)C(=O)O (stereo partly drawn) [Romurtide, romurtide, reference compound]
Number of survivals [1, 6]: 5 | Stimulation index (number of plaques in the test group/number of plaques in the control group) ([2]; dose 1 μ/mouse): 1.06 | Stimulation index (number of plaques in the test group/number of plaques in the control group) ([2]; dose 10 μ/mouse): 1.92

C[C@H](NC(=O)C1(C)Oc2ccccc2NC1=O)C(=O)N[C@H](CCC(=O)O)C(N)=O (stereo partly drawn) [Compound 3, N-(3,4-dihydro-2-methyl-3-oxo-2H-1,4-benzoxazine-2-carbonyl)-L-alanyl-D-isoglutamine]
Animals still without tumors on day 20 after the tumor induction [3]: three animals of nine

C[C@H](NC(=O)C1(C)Oc2ccccc2N(C)C1=O)C(=O)N[C@H](CCC(=O)O)C(N)=O (stereo partly drawn) [Compound 4, (2S)-N-(3,4-dihydro-2,4-dimethyl-3-oxo-2H-1,4-benzoxazine-2-carbonyl)-L-alanyl-D-isoglutamine]
Animals with complete regression of tumors [3]: one of nine animals

CCCCCCCCCCCC(=O)N[C@@H]1CCCC[C@H]1OCC(=O)N[C@@H](C)C(=O)N[C@H](CCC(=O)O)C(N)=O [U.S. 5,231,216, N[trans2-(2dodecanoylaminocyclohexyloxy)acetyl)L-alanyl-D-isoglutamine, reference compound]
Number of survivals [1, 6]: 2 | Number of survivals [1, 7]: 5 | Number of survivals [1, 8]: 6 | Number of survivals [1, 9]: 6

C[C@H](NC(=O)C1(C)Oc2ccccc2N(C)C1=O)C(=O)N[C@H](CCC(=O)O)C(N)=O (stereo partly drawn) [Compound 1, N-(3,4-Dihydro-2,4-dimethyl-3-oxo-2H-1,4-benzoxazine-2-carbonyl)-L-alanyl-D-isoglutamine]
average lethal dose (LD50) [4]: > 250 mg/kg | Number of survivals [1, 6]: 6 | Number of survivals [1, 7]: 6 | Number of survivals [1, 8]: 7 | Number of survivals [1, 9]: 6 | Dose achieving the immunorestorative effect, times lower in comparison with the related compounds of U.S. Pat. No. 5,231,216 ([1]; comparison across i.p. doses 0.1-100 mg/kg): up to 100 times | Immunorestorative activity compared with romurtide ([1]; mouse, in vivo): superior to that of the MDP analogue romurtide | Stimulation index (number of plaques in the test group/number of plaques in the control group) ([2]; dose 1 μ/mouse): 3.64 | Stimulation index (number of plaques in the test group/number of plaques in the control group) ([2]; dose 10 μ/mouse): 5.32 | Pyrogenous activity [5]: did not show any pyrogenous activity

O=P1(N(CCCl)CCCl)NCCCO1 (stereo not drawn) [Cyclophosphamide, reference compound]
Number of survivals ([1]; cyclophosphamide alone 30 mg/kg × 3 p.o.): 3

C[C@@H](NC(=O)C1(C)Oc2ccccc2NC1=O)C(=O)N[C@H](CCC(=O)O)C(N)=O (stereo partly drawn) [Compound 2, (2R)-N-(3,4-dihydro-2-methyl-3-oxo-2H-1,4-benzoxazine-2-carbonyl)-L-alanyl-D-isoglutamine]
Animals with complete regression of tumors [3]: two of eight animals
